Among the data in PubChem BioAssay AID248 (DTP/NCI, 2004) are T/C values, retold here.

Each structure is given as a SMILES string. Several values for one entry are separate records, joined by “and”; a condition that tells them apart may be missing. Identical values can stand only once. Toxic doses and inconclusive results are not listed.

This experiment deals with L1210 leukemia ip in BDF1 mice, survival T/C. The experiment can be described thus: NCI In Vivo Anticancer Drug Screen. Data for tumor model L1210 Leukemia (intraperitoneal) in B6D2F1 (BDF1) mice. The settings on record: endpoint: mean survival time, higher = longer survival. A digest of the protocol: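 Mice bearing the transplanted tumor received compound or vehicle. Survival of the treated group was divided by that of the vehicle-treated control group to give the ratio.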

Where [1] appears, read: dose: 100.0 mg/kg/injection, schedule: Q04DX003 (ip), vehicle: saline with Tween-80.
[2] abbreviates: dose: 200.0 mg/kg/injection, schedule: Q04DX003 (ip), vehicle: saline with Tween-80.
[3] abbreviates: dose: 400.0 mg/kg/injection, schedule: Q04DX003 (ip), vehicle: saline with Tween-80.
The mark [4] stands for this setting: dose: 100.0 mg/kg/injection, schedule: Q04DX003 (ip), vehicle: Klucel (hydroxypropylcellulose) (HPC).
Where [5] appears, read: dose: 200.0 mg/kg/injection, schedule: Q04DX003 (ip), vehicle: Klucel (hydroxypropylcellulose) (HPC).
Where [6] appears, read: dose: 50.0 mg/kg/injection, schedule: Q01DX009 (ip), vehicle: saline.
[7] abbreviates: dose: 100.0 mg/kg/injection, schedule: Q01DX009 (ip), vehicle: saline.
[8] abbreviates: dose: 100.0 mg/kg/injection, schedule: Q04DX003 (ip), vehicle: saline.
Setting [9] is: dose: 200.0 mg/kg/injection, schedule: Q01DX001 (ip), vehicle: saline.
The mark [10] stands for this setting: dose: 200.0 mg/kg/injection, schedule: Q04DX003 (ip), vehicle: saline.
[11] abbreviates: dose: 100.0 mg/kg/injection, schedule: Q01DX009 (ip), vehicle: Klucel (hydroxypropylcellulose) (HPC).
The mark [12] stands for this setting: dose: 200.0 mg/kg/injection, schedule: Q01DX009 (ip), vehicle: Klucel (hydroxypropylcellulose) (HPC).
Setting [13] is: dose: 400.0 mg/kg/injection, schedule: Q04DX003 (ip), vehicle: Klucel (hydroxypropylcellulose) (HPC).

With `CCNC(=O)C1C2C=CC(C2)C1C(=O)NCC` (stereo not given), the T/C under setting [1] is 91 % of control, the T/C under setting [2] is 96 % of control and the T/C under setting [3] is 87 % of control.
Turning to `CN(C)c1ccc(NC(=O)NCCCl)cc1`, the T/C by setting is: under setting [4], 106 % of control; under setting [5], 103 % of control.
`CN(C)CCN(C)N=Nc1c(-c2cccs2)n[nH]c1C(F)(F)F`: the T/C (dose: 75.0 mg/kg/injection, schedule: Q01DX001 (ip), vehicle: other) is 94 % of control; the T/C (dose: 150.0 mg/kg/injection, schedule: Q01DX001 (ip), vehicle: other) is 98 % of control; the T/C (dose: 300.0 mg/kg/injection, schedule: Q01DX001 (ip), vehicle: other) is 93 % of control.
Consider `COc1ccc(/C=N\NC(=O)OC(C)(C)C)c(OC)c1OC`, for which the T/C is 104 % of control (dose: 100.0 mg/kg/injection, schedule: Q01DX009 (ip), vehicle: acetone); 105 % of control under setting [1]; 94 % of control (dose: 200.0 mg/kg/injection, schedule: Q01DX009 (ip), vehicle: acetone); 112 % of control under setting [2]; 96 % of control (dose: 400.0 mg/kg/injection, schedule: Q01DX009 (ip), vehicle: acetone); 112 % of control under setting [3].
As to `CN(C)Cc1ccccc1C(O)(c1ccccc1)c1ccccc1CN(C)C`, the T/C was 91 % of control (dose: 8.0 mg/kg/injection, schedule: Q01DX015 (ip), vehicle: carboxymethylcellulose (CMC)); 90 % of control (dose: 16.0 mg/kg/injection, schedule: Q01DX015 (ip), vehicle: carboxymethylcellulose (CMC)); 88 % of control (dose: 32.0 mg/kg/injection, schedule: Q01DX015 (ip), vehicle: carboxymethylcellulose (CMC)).
Consider `OCCCC1CCCCN1` (stereo not given), for which the T/C runs as follows: (dose: 25.0 mg/kg/injection, schedule: Q01DX009 (ip), vehicle: saline) 100 % of control; under setting [6], 96 % of control; under setting [7], 88 % of control; (dose: 100.0 mg/kg/injection, schedule: Q04DX003 (ip), vehicle: acetone) 103 % of control.
`O=S(=O)(O)C(O)c1ccc(C(O)S(=O)(=O)O)cc1` (stereo not given): the T/C reads like this: (dose: 100.0 mg/kg/injection, schedule: Q01DX001 (ip), vehicle: saline) 107 % of control; under setting [8], 92 % of control; under setting [9], 107 % of control; under setting [10], 102 % of control; (dose: 400.0 mg/kg/injection, schedule: Q01DX001 (ip), vehicle: saline) 105 % of control; (dose: 400.0 mg/kg/injection, schedule: Q04DX003 (ip), vehicle: saline) 95 % of control.
For `ClCCCOC1CCCCO1` (stereo not given), the T/C is, setting by setting: under setting [4], 89 % of control; under setting [1], 107 % of control; under setting [5], 95 % of control; under setting [2], 96 % of control; under setting [3], 96 % of control.
As to `Nc1nc(-c2ccccc2)c(CCCCc2ccccc2)c(=O)[nH]1`, the T/C (dose: 50.0 mg/kg/injection, schedule: Q01DX Z (ip), vehicle: carboxymethylcellulose (CMC)) is 97 % of control and the T/C (dose: 200.0 mg/kg/injection, schedule: Q01DX Z (ip), vehicle: carboxymethylcellulose (CMC)) is 89 % of control.
With `CCOC(=O)C1C(=O)C(C(C(=O)OC2CC(C)CCC2C(C)C)N(CCCl)CCCl)C(=O)C(C(=O)OCC)C1c1ccc(O)cc1` (stereo not given), the T/C (dose: 50.0 mg/kg/injection, schedule: Q01DX009 (ip), vehicle: Klucel (hydroxypropylcellulose) (HPC)) was 104 % of control; the T/C under setting [11] is 104 % of control; the T/C under setting [12] is 101 % of control.
In the case of `CSc1nc(-c2cccs2)cc(C(F)(F)F)n1`, the T/C (dose: 100.0 mg/kg/injection, schedule: Q04DX003 (ip), vehicle: gum acacia) was 97 % of control; the T/C (dose: 200.0 mg/kg/injection, schedule: Q04DX003 (ip), vehicle: gum acacia) is 100 % of control; the T/C (dose: 400.0 mg/kg/injection, schedule: Q04DX003 (ip), vehicle: gum acacia) is 102 % of control.
For the compound `CC1(C)CCC(C)(C)c2c1ccc(O)c2Cc1c(O)ccc2c1C(C)(C)CCC2(C)C`, the T/C is, setting by setting: under setting [4], 96 % of control; under setting [9], 87 % of control; under setting [5], 96 % of control; under setting [13], 94 % of control.
For the compound `CC(C)(C)SCCC(=O)NC1CCCCC1`, the T/C reads like this: under setting [6], 90 % of control; under setting [7], 95 % of control; under setting [8], 106 % of control; (dose: 200.0 mg/kg/injection, schedule: Q01DX009 (ip), vehicle: saline) 93 % of control; under setting [10], 101 % of control.
Regarding `Cc1ncc(CO)c(C2NOCc3c(Cl)cc4c(c32)OCO4)c1O` (stereo not given), the T/C was 90 % of control (dose: 100.0 mg/kg/injection, schedule: Q01DX009 (ip), vehicle: saline with Tween-80); 95 % of control (dose: 200.0 mg/kg/injection, schedule: Q01DX009 (ip), vehicle: saline with Tween-80); 94 % of control (dose: 400.0 mg/kg/injection, schedule: Q01DX009 (ip), vehicle: saline with Tween-80).
`C(CCSC1=NCCN1)CSC1=NCCN1`: the T/C (dose: 100.0 mg/kg/injection, schedule: Q04DX002 (ip), vehicle: saline) was 105 % of control.
For the compound `CCSc1nc2ccccc2s1`, the T/C is, setting by setting: (dose: 100.0 mg/kg/injection, schedule: Q01DX001 (ip), vehicle: other) 93 % of control; (dose: 200.0 mg/kg/injection, schedule: Q01DX001 (ip), vehicle: other) 98 % of control.
`COc1cc(C=Nc2cccc(Br)c2)ccc1N(CCCl)CCCl`: the T/C reads like this: (dose: 1.4 mg/kg/injection, schedule: Q01DX015 (ip), vehicle: carboxymethylcellulose (CMC)) 107 % of control; (dose: 2.2 mg/kg/injection, schedule: Q01DX015 (ip), vehicle: carboxymethylcellulose (CMC)) 111 % of control; (dose: 3.3 mg/kg/injection, schedule: Q01DX009 (ip), vehicle: saline) 101 % of control; (dose: 3.3 mg/kg/injection, schedule: Q01DX015 (ip), vehicle: carboxymethylcellulose (CMC)) 113 % of control; (dose: 5.0 mg/kg/injection, schedule: Q01DX009 (ip), vehicle: saline) 116 % of control; (dose: 5.0 mg/kg/injection, schedule: Q01DX015 (ip), vehicle: carboxymethylcellulose (CMC)) 119 % of control and 121 % of control. Besides, the T/C runs as follows: (dose: 9.0 mg/kg/injection, schedule: Q01DX009 (ip), vehicle: saline) 109 % of control; (dose: 9.0 mg/kg/injection, schedule: Q01DX015 (ip), vehicle: carboxymethylcellulose (CMC)) 159 % of control; (dose: 15.0 mg/kg/injection, schedule: Q01DX009 (ip), vehicle: saline) 111 % of control; (dose: 15.0 mg/kg/injection, schedule: Q01DX015 (ip), vehicle: carboxymethylcellulose (CMC)) 105 % of control; (dose: 22.0 mg/kg/injection, schedule: Q01DX001 (ip), vehicle: carboxymethylcellulose (CMC)) 111 % of control; (dose: 25.0 mg/kg/injection, schedule: Q01DX015 (ip), vehicle: carboxymethylcellulose (CMC)) 94 % of control and 97 % of control. Moreover, the T/C runs as follows: (dose: 25.0 mg/kg/injection, schedule: Q04DX003 (ip), vehicle: saline) 86 % of control; (dose: 33.0 mg/kg/injection, schedule: Q01DX001 (ip), vehicle: carboxymethylcellulose (CMC)) 108 % of control; (dose: 50.0 mg/kg/injection, schedule: Q01DX001 (ip), vehicle: carboxymethylcellulose (CMC)) 113 % of control; (dose: 50.0 mg/kg/injection, schedule: Q04DX003 (ip), vehicle: saline) 119 % of control; (dose: 100.0 mg/kg/injection, schedule: Q01DX001 (ip), vehicle: carboxymethylcellulose (CMC)) 117 % of control; (dose: 200.0 mg/kg/injection, schedule: Q01DX001 (ip), vehicle: carboxymethylcellulose (CMC)) 117 % of control. The T/C (dose: 400.0 mg/kg/injection, schedule: Q01DX001 (ip), vehicle: carboxymethylcellulose (CMC)) is 123 % of control.
As for `Cc1cccc(NC(=O)NC2CCC(CC3CCCCC3)CC2)c1` (stereo not given), the T/C is, setting by setting: under setting [11], 106 % of control; under setting [4], 97 % of control; under setting [12], 97 % of control; under setting [5], 101 % of control; (dose: 400.0 mg/kg/injection, schedule: Q01DX009 (ip), vehicle: Klucel (hydroxypropylcellulose) (HPC)) 95 % of control; under setting [13], 101 % of control.
